pIC50: −log10 of the molar value.
Target: LTB4 receptor (Homo sapiens, UniProt Q15722)
Assay: [3H]LTB4 competition radioligand binding on HEK293 cells
Format: cell-based

LTB4 receptor, sequence (Q15722 whole entry): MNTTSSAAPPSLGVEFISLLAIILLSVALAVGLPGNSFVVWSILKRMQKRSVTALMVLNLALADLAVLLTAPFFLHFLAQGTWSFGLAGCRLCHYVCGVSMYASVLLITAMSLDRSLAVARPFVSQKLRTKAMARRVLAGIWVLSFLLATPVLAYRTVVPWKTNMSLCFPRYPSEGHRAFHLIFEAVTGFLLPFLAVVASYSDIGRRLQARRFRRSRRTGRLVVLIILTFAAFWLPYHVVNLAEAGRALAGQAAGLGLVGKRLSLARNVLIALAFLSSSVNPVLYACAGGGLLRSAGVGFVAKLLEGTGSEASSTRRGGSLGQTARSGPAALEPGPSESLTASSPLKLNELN

- pIC50: ~6.30
Structure (SMILES): CC/C=C\C/C=C\C[C@@H](O)/C=C/C=C/C=C\[C@@H](O)CCCC(=O)O [LTB5]
